Data reported in US10676474B2, “1,6-naphthyridine derivatives as CDK4/6 inhibitor” (CSTONE PHARMACEUTICALS, priority 2016, dated 2020).
Values after ≈ are worked out from the molar mass of the structure shown. Read-outs that look alike come from different tables or passages of the source.

Experiments:
[1] = target: T1, CDK4/cyclin D1 (Homo sapiens, UniProt P11802); assay: Enzyme activity assay CDK4/cyclin D1 (Lance Ultra); type: biochemical; conditions: 0.3 nM CDK4/cyclin D1, 350 μM ATP, 180 minutes
T1 construct: purchased Life technology
Protocol: (§1) CDK4/cyclin D1, CDK6/cyclin D1 (Life technology). ULight labeled polypeptide substrates ULight-4E-BP1 and ULight-MBP (PerkinElmer). Europium labeled anti-myelin basic protein antibody and europium labeled rabbit-derived antibody (PerkinElmer). Envision Multi-label Analyzer (PerkinElmer) for signal detection.
(§2) They were respectively dissolved in an enzyme buffer solution comprising: 50 mM hydroxyethylpiperazine ethanesulfuric acid solution at pH 7.5, 1 mM ethylenediaminetetraacetic acid, 10 mM magnesium chloride, 0.01% Brij-35, 2 mM dithiothreitol. After the reaction was begun, the OptiPlate 384-well plate was sealed with a top heat seal film TopSeal-A, and incubated at room temperature for 180 minutes.
(§3) The termination buffer solution of the enzymatic reaction was prepared, and EDTA was dissolved in a 1-fold diluted assay buffer solution. The reaction was terminated and incubated at room temperature for 5 minutes. 5 μL of the assay mixed solution (prepared with europium labeled anti-myelin basic protein antibody and europium labeled rabbit-derived antibody, respectively) was added to the reactions of CDK4/cyclin D1 and CDK6/cyclin D1, respectively, and incubated at room temperature for 60 minutes. The reaction signal was detected by Envision according to the time-resolved fluorescence resonance energy transfer theory.

[2] = system: non-small cell lung cancer NCI-H358 model; assay: In vivo pharmacodynamic study (2), NCI-H358 model, tumor volume; design: species or system BALB/c nude mice; conditions: 60 mg/kg orally daily, Table 6-1
Protocol: (§4) The in vivo pharmacodynamic experiments were performed on the BALB/c nude mice implanted subcutaneously with the non-small cell lung cancer NCI-H358 model.
(§5) All of the cages, beddings and water were disinfected before use. All of the animals were permitted free access to a standard certified commercial laboratory diet. A total of 86 mice purchased from Vital River Laboratory Animal Co., LTD, Beijing were used for the study. The animal information of the experiments in Example 34 was as follows: BALB/c nude mice, female, 6-8 weeks, weighing approximately 16-18 g, were placed in a single ventilated cage (4 mice per cage) under a special pathogen free environment. All of the cages, beddings and water were disinfected before use. All of the animals were permitted free access to a standard certified commercial laboratory diet. A total of 56 mice purchased from Shanghai Lingchang Biotechnology Co., Ltd. were used for the study.
(§6) Each mouse was implanted subcutaneously with NCI-H358 tumor cells in the right back for tumor growth. The dosing initiated when the average tumor volume reached about 100-200 mm^3. […] The tumor volume was measured twice a week using a two-dimensional caliper, and the volume was measured in mm^3, calculated by the following the formula: V=0.5 a×b^2, wherein, a and b were the long and short diameters of the tumor, respectively. The antitumor efficacy was determined by dividing the average increase in the tumor volume of the animals treated with the compound by the average increase in the tumor volume of the untreated animals, and the safety of the compound was determined by the change in the body weight of the animal treated with the compound.
TGI: Tumor Growth Inhibition.

[3] = In vivo pharmacodynamic study (2), NCI-H358 model, animal weight; design: species or system BALB/c nude mice; conditions: 60 mg/kg orally daily
Protocol: as §4, §5, §6

[4] = physchem; conditions: pH 7.4, aqueous buffer, kinetic from dmso stock
[5] = Two-way permeability evaluation assay of Caco-2 cells; conditions: human, Caco-2, pH 7.4
[6] = system: Caco-2 cells; assay: as above; conditions: Caco-2
[7] = target: T2, CDK6/cyclin D1 (Homo sapiens, UniProt Q00534); assay: Enzyme activity assay CDK6/cyclin D1 (Lance Ultra); type: biochemical; conditions: 0.8 nM CDK6/cyclin D1, 250 μM ATP, 180 minutes
T2 construct: purchased Life technology
Protocol: as §1
as §2, with “started,” for “begun,”, “TopSeal-A” for “TopSeal-A,”
as §3

[8] = system: NCI-H358 cells; assay: Cell viability assay NCI-H358 (CellTiter-Glo); type: cell-based; conditions: Homo sapiens, 168 h; NCI-H358, incubated for 7 days
Protocol: The NCI-H358 cell line is from the cell bank of the Department of Biology of WuXi Apptec Co. Ltd. Envision Multi-Label Analyzer (PerkinElmer).
1) 100 μL of phosphate buffer solution was added to the peripheral wells of the 384-well plate and 40 μL of NCI-H358 cell suspension was added to the other wells containing 250 NCI-H358 cells. The cell plate was then placed in a carbon dioxide incubator and incubated overnight.
2) A 3-fold gradient dilution was subjected to the tested compounds using Echo. Each compound was diluted by 10 concentration gradients (diluted from 25 μM to 1.27 nM), 100 nL of which was added to the corresponding wells of the cell plate. The cell plate was then placed in a carbon dioxide incubator and incubated for 7 days.
3) 20 μL of Promega CellTiter-Glo reagent was added to each well of the cell plate, and shaken for 10 minutes away from light at room temperature to stabilize the luminescence signal. Readings were performed using a PerkinElmer Envision Multi-label Analyzer.
Table 1 provides the inhibitory activity of the compounds of the present invention against the proliferation of H358 cells.

[9] = Thermodynamic solubility test (shake-flask, HPLC); type: physicochemical; conditions: phosphate buffer, aqueous buffer, thermodynamic from solid
Protocol: The thermodynamic solubility of the compounds was determined by the shake-flask method and HPLC. The solubility of the compounds is an important property that affects drug screening of compounds and the absorption of compounds in animals and humans. A saturated solution of the compound was first given and quantitatively tested by HPLC to obtain the solubility of the compound.
50 mM phosphate buffer solution, pH 7.4.
Not less than 2 mg of the sample powder was weighed into a vial of Whatman miniuniprep. If test of the thermodynamic solubility of a sample in multiple buffer solutions is required, an individual vial is required for each test.
450 μL of the buffer solution (pH 7.4) was added to each Whatman miniuniprep vial.
After the addition of the buffer solution, the Whatman miniuniprep cap with a filter was mounted and pressed above the liquid level so that the filter could contact with the buffer solution during shaking.
And the observation of the solution was recorded.
It was shaked at 550 RPM for 24 hours at room temperature (about 22 to 25° C.).
The Whatman Miniunipreps filter cap was pressed to the bottom to give the filtrate of the sample solubility solution. All sample vials should be filtered before and after insoluble substances and their leakage.
The buffer was diluted 50 folds to give a sample diluent.
Three UV standards from low to high concentration were injected into HPLC, followed by the injection of the dilutions and supernatants of the tested compounds. The tested sample was injected twice.

[10] = Metabolic stability in mouse liver microsomes; type: in vitro ADME; conditions: 0.5 mg/mL protein, read-out: Mice T1/2
Protocol: (§7) This assay is used to test the metabolic stability of tested substances in rats, mice and human liver microsomes.
(§8) 1) The tested compound with concentration of 1 μM was co-incubated with liver microsomes with a protein concentration of 0.5 mg/mL under a reducing coenzyme II regeneration system in a 37° C. water bath.
(§9) 2) The positive controls include: testosterone (3A4 substrate), propafenene (2D6 substrate) and diclofenac (2C9 substrate). The incubation condition of the positive controls was consistent with that of the compound.
(§10) 3) The reaction time points were: 0, 5, 10, 20, 30 and 60 minutes, and the reaction is terminated at the corresponding time point using a termination solution containing an internal standard. The compounds were also incubated with microsomes for 60 minutes without a reducing coenzyme II regeneration system and served as a negative control.
(§11) 4) Each time point was a single point (n=1).
(§12) 5) The sample was determined by LC/MS/MS, and the compound concentration was shown as the ratio of the peak area of the compound to the peak area of the internal standard (non-standard).
(§13) 6) In the project report summary, the half-life and the clearance rate would be calculated.

[11] = it has been reported; cited from earlier work
[12] = system: LU-01-0393 lung cancer patient-derived tumor tissue xenograft (PDX); assay: In vivo pharmacodynamic study (1), LU-01-0393 PDX; design: species or system BALB/c nude mice; conditions: 120 mg/kg orally daily
Protocol: The in vivo pharmacodynamic experiments were performed on the BALB/c nude mice implanted subcutaneously with the LU-01-0393 lung cancer patient-derived tumor tissue xenograft (PDX).
BALB/c nude mice, female, 6-8 weeks, weighing approximately 17-21 g, were placed in a single ventilated cage (5 mice per cage) under a special pathogen free environment. All of the cages, beddings and water were disinfected before use. All of the animals were permitted free access to a standard certified commercial laboratory diet. A total of 36 mice purchased from Vital River Laboratory Animal Co., LTD, Beijing were used for the study. Each mouse was implanted subcutaneously with a tumor LU-01-0393 FP4 section (20-30 mm^3) in the right back for tumor growth. The dosing initiated when the average tumor volume reached about 150-200 mm^3. The tumor volume was measured twice a week using a two-dimensional caliper, and the volume was measured in mm^3, calculated by the following the formula: V=0.5 a×b^2, wherein, a and b were the long and short diameters of the tumor, respectively. The antitumor efficacy was determined by dividing the average increase in the tumor volume of the animals treated with the compound by the average increase in the tumor volume of the untreated animals.

[13] = system: Caco-2 cells
[14] = Metabolic stability in human liver microsomes; type: in vitro ADME; conditions: 0.5 mg/mL protein, read-out: Human T1/2
Protocol: as §7, §8, §9, §10, §11, §12, §13

[15] = Metabolic stability in rat liver microsomes; type: in vitro ADME; conditions: 0.5 mg/mL protein, read-out: Rats T1/2
Protocol: as §7, §8, §9, §10, §11, §12, §13

T1 sequence (P11802 whole entry): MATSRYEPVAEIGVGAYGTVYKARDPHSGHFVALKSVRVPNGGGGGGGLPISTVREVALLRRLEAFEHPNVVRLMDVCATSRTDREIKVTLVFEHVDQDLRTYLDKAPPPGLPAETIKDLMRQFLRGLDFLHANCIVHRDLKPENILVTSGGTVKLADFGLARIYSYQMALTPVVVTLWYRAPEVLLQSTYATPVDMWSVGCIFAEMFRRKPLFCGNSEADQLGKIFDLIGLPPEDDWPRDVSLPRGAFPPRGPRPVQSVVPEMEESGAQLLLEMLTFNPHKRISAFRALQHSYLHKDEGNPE
T1 sequence (P24385 whole entry partner): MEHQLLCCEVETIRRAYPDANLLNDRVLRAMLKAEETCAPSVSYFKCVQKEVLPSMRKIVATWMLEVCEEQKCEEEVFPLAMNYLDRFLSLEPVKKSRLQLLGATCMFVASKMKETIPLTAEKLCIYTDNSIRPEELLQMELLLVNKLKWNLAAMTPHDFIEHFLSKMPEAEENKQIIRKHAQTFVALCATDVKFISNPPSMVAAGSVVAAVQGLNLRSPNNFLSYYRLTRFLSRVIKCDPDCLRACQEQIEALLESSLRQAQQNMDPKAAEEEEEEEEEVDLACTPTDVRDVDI
T2 sequence (Q00534 whole entry): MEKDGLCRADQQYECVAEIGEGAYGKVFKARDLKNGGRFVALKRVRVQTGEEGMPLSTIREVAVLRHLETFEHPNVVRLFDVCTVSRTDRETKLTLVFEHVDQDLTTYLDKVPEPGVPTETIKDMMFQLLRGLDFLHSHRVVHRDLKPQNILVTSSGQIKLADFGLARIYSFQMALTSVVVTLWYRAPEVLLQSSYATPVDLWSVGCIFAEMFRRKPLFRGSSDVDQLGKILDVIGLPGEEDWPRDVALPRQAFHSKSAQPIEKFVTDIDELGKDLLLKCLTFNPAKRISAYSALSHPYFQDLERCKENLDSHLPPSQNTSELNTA
T2 sequence (P24385 whole entry partner): as the sequence (P24385 whole entry partner) above

Changes in animal weight, 0 days [3]	Changes in animal weight, 7 days [3]	Changes in animal weight, 14 days [3]	Changes in animal weight, 17 days [3]	solubility kinetic at 24 h ([4]; phosphate buffer)	Category Permeability [6]	IC50 [8]	half-life at 1 μM [10]	Category Efflux transporter substrate [13]	half-life at 1 μM [14]	half-life at 1 μM [15]	SMILES	Gross tumor volume, 0 day [2]	Gross tumor volume, 7 days [2]	Gross tumor volume, 14 days [2]	Gross tumor volume, 17 days [2]	also measured
0.0%	−1.0%	0.5%	0.8%	171 µM (≈ 83.7 µg/mL)	High	0.176 µM	–	–	–	–	CC(=O)c1c(C)c2cnc(Nc3cnc(N4CCN(C(C)C)CC4)cn3)cc2n(C2CCCC2)c1=O [Example 3]	152 mm^3	141 mm^3	159 mm^3	136 mm^3	IC50 [1]: 0.0061 µM; Papp A→B at 2 h, 2 μM [5]: 109 nm/s; Papp B→A at 2 h, 2 μM [5]: 124 nm/s; efflux ratio at 2 h, 2 μM [5]: 1.14; Category Efflux transporter substrate [6]: Less; IC50 [7]: 0.0029 µM
–	–	–	–	180 ± 15 µM (≈ 42.5 µg/mL)	–	–	–	–	–	–	NC(=O)N1c2ccccc2C=Cc2ccccc21 [Carbamazepine, reference compound]	–	–	–	–	solubility thermodynamic at 24 h ([9]; QC samples, pH 7.4, read-out: Thermodynamic solubility pH 7.4): 450 ± 60 µM (≈ 106 µg/mL)
0.0%	1.0%	0.9%	0.7%	–	–	0.314 µM	53.3 min	Highly	44.7 min	47.8 min	CC(=O)c1c(C)c2cnc(Nc3ccc(N4CCNCC4)cn3)nc2n(C2CCCC2)c1=O [Palbociclib]	152 mm^3	137 mm^3	107 mm^3	104 mm^3	brain permeability [11]: poor; Gross tumor volume Day 0 ([12]; Day 0): 145 mm^3; Gross tumor volume Day 7 ([12]; Day 7): 173 mm^3; Gross tumor volume Day 14 ([12]; Day 14): 179 mm^3; Gross tumor volume Day 20 ([12]; Day 20): 188 mm^3; solubility kinetic at 24 h [4]: 103 µM (≈ 46.1 µg/mL); Category Permeability [13]: Low; solubility thermodynamic at 24 h ([9]; pH = 7.4, Table 3-2, read-out: Thermodynamic solubility): 65.3 µM (≈ 29.2 µg/mL)
0.0%	−2.9%	−3.5%	−3.5%	–	Medium	–	2.36 min	Possible	2.69 min	6.34 min	CCN1CCN(Cc2ccc(Nc3ncc(F)c(-c4cc(F)c5nc(C)n(C(C)C)c5c4)n3)nc2)CC1 [LY2835219, Abemaciclib]	152 mm^3	97 mm^3	73 mm^3	60 mm^3	–
